Molecular target: HPK1 (Homo sapiens (Human), UniProt Q92918)
Assay: HPK1 Lantha binding assay ("Lanth")
Settings: binding assays; Morrison Ki fit
Summary of the method: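 TR-FRET binding competition using 2 nM HPK1, 2 nM Eu-anti-GST antibody and 15 nM Tracer222 at 23 °C. Compound was incubated 1 h with enzyme and antibody, then 1 h after tracer addition, with an 11-point 5-fold dilution series. Ki obtained from a Morrison fit that corrects for tracer concentration and Kd.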

Chain of HPK1 (Q92918 1-346 limits assumed): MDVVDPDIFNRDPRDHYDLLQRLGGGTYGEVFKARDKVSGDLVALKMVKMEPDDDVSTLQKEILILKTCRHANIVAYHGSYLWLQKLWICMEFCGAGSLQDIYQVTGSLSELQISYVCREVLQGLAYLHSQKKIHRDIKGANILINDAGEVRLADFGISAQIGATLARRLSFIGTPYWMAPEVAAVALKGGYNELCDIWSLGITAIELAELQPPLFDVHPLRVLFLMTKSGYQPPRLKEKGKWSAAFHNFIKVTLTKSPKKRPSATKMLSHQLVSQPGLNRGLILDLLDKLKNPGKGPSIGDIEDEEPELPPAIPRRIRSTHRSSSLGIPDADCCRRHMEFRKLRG

Compound	Ki
CN(C)C(=O)c1c(N)ccc(-c2cnc3c(c2Cl)C2(CCC(NCC(N)=O)C2)CN3)c1F (stereo not shown) [Compound 76, 6-Amino-3-(3-((2-amino-2-oxoethyl)amino)-4′-chloro-1′,2′-dihydrospiro[cyclopentane-1,3′-pyrrolo[2,3-b]pyridin]-5′-yl)-2-fluoro-N,N-dimethylbenzamide]	490 nM
O=C(N1CCOCC1)C1(c2cccc(-c3cnc4c(c3Cl)C3(CC=CC3)CN4)c2)CC1 [Compound 268, (1-(3-(4′-Chloro-1′,2′-dihydrospiro[cyclopentane-1,3′-pyrrolo[2,3-b]pyridin]-3-en-5′-yl)phenyl)cyclopropyl)(morpholino)methanone]	484 nM
CO[C@H]1C[C@@]2(CNc3ncc(-c4ccc(N)c(C(=O)N(C)C)c4F)c(Cl)c32)C1 [Compound 80b, 6-Amino-3-((1s,3s)-4′-chloro-3-methoxy-1′,2′-dihydrospiro[cyclobutane-1,3′-pyrrolo[2,3-b]pyridin]-5′-yl)-2-fluoro-N,N-dimethylbenzamide]	129 nM
CN(C)S(=O)(=O)c1cccc(-c2cnc3c(c2)C2(CC2)CN3)c1F [Compound 21, 3-(1′,2′-dihydrospiro[cyclopropane-1,3′-pyrrolo[2,3-b]pyridin]-5′-yl)-2-fluoro-N,N-dimethylbenzenesulfonamide]	297 nM
N#Cc1ccc2ccn(-c3cnc4c(c3)C3(CC3)CN4)c2c1 [Compound 344, 1-(1′,2′-Dihydrospiro[cyclopropane-1,3′-pyrrolo[2,3-b]pyridin]-5′-yl)-1H-indole-6-carbonitrile]	590 nM

Molecules with a lower Ki, results first:

Ki	Compound
88.9 nM	O=C1CCCCN1c1cccc2c(-c3cnc4c(c3)C3(CC3)CN4)c[nH]c12 [Compound 299, 1-(3-(1′,2′-Dihydrospiro[cyclopropane-1,3′-pyrrolo[2,3-b]pyridin]-5′-yl)-1H-indol-7-yl)piperidin-2-one]
39.6 nM	CO[C@@H]1CC[C@@]2(CNc3ncc(-c4ccc(N)c(C(=O)N(C)C)c4F)c(Cl)c32)C1 (relative stereo) [Compound 81a, 6-Amino-3-((1R,3R)-4′-chloro-3-methoxy-1′,2′-dihydrospiro[cyclopentane-1,3′-pyrrolo[2,3-b]pyridin]-5′-yl)-2-fluoro-N,N-dimethylbenzamide]
37.6 nM	CN(C)C(=O)c1c(N)ccc(-c2cnc3c(c2Cl)[C@@]2(CCC(=O)NC2)CN3)c1F (single isomer, unassigned) [Compound 123a]
13.3 nM	Cc1c(CC#N)ccnc1-c1cc(N)cc(-c2cnc3c(c2Cl)[C@]2(CC[C@](C)(C#N)C2)CN3)c1 (single isomer, unassigned) [Compound 274a]
10.4 nM	CN(C)C(=O)c1c(N)ccc(-c2cnc3c(c2Cl)[C@]2(CC[C@H](c4cccnc4)C2)CN3)c1F [Compound 145c, 6-Amino-3-((1R,3S)-4′-chloro-3-(pyridin-3-yl)-1′,2′-dihydrospiro[cyclopentane-1,3′-pyrrolo[2,3-b]pyridin]-5′-yl)-2-fluoro-N,N-dimethylbenzamide]
7.71 nM	CN(C)C(=O)c1c(N)ccc(-c2cnc3c(c2Cl)C2(CC2)CN3)c1F [Compound 8, 6-Amino-3-(4′-chloro-1′,2′-dihydrospiro[cyclopropane-1,3′-pyrrolo[2,3-b]pyridin]-5′-yl)-2-fluoro-N,N-dimethylbenzamide]
2.63 nM	Cc1noc([C@@]2(C)CC[C@@]3(CNc4ncc(-c5ccc(N)c(C(=O)N(C)C)c5F)c(Cl)c43)C2)n1 (relative stereo) [Compound 156a, 6-Amino-3-((1R,3S)-4′-chloro-3-methyl-3-(3-methyl-1,2,4-oxadiazol-5-yl)-1′,2′-dihydrospiro[cyclopentane-1,3′-pyrrolo[2,3-b]pyridin]-5′-yl)-2-fluoro-N,N-dimethylbenzamide]
1.73 nM	C[C@@H]1C[C@]12CNc1ncc(-c3ccc(N)c(C(=O)N(C)C)c3F)c(Cl)c12 (single isomer, unassigned) [Compound 228b]

Reference: patent US12208088B2 (Genentech, Inc., priority 2018, dated 2025)
